Measured values as given in US20140248373A1, “ENHANCED PERFORMANCE HYDROGEN PEROXIDE FORMULATIONS COMPRISING PROTEINS AND SURFACTANTS” (Advanced BioCatalytics Corporation, priority 2008, published 2014).
Read-outs that look alike come from different tables or passages of the source.

How the values were obtained:
[1] = Oxidation-reduction potential by Square Wave Voltammetry (SWVA); assay type: physicochemical; conditions: for Wave Height, I, mA / E, mV vs. Ag/AgCl: SWVA; for E, mV vs. Ag/AgCl: absence of atmospheric oxygen
Protocol: The compatibility of H2O2 and the protein/surfactant system was assessed using two approaches. […] Second, H2O2 concentration was determined over various time periods, up to one year, in the mixtures of hydrogen peroxide and protein/surfactant mixture, by volumetric titration with standardized permanganate solution. ORP measurements were conducted using Square Wave Voltammetry (SWVA) in a glove box, in the absence of atmospheric oxygen. Solutions 27% and 15% H2O2 with and without addition of 5% protein/surfactant were taken for these experiments.

[2] = tested on: E. Coli; conditions: for E. Coli Sample (CFU/mL): 5% Horse serum
Protocol: (§1) The following tests were run with PS-2 at a 4% concentration (0.72% total surfactant), H2O2 at 3% and phosphoric acid at <0.1% to pH 2.9, Versene (EDTA) at 0.1%. Test methodology was Suspension Based, Quantitative Time-Kill at 22° C., but with 5% Horse serum added to show the effects of organic contaminant on antimicrobial activity. A control of 3% H2O2 was run in this example.

[3] = tested on: S. aureus; conditions: for S. aureus Sample (CFU/mL): 5% Horse serum
Protocol: as §1

[4] = exposure time of up to 10 minutes, organic contamination

Question: With OO [Composition H2O2, hydrogen peroxide] as the compound, how does the “Potential (apex of current wave)” value ([1]; NHE) read?
Answer: about 1.8 V

Question: What about the “Potential (apex of current wave)” value ([1]; against saturated silver/silver chloride electrode) of the same compound?
Answer: about 1.6 V

Question: For OO [Control, 3% H2O2, hydrogen peroxide], which “E. Coli Sample (CFU/mL)” value ([2]; 1 min) is on record?
Answer: 1.71E+07 CFU/mL

Question: What about the “E. Coli Sample (CFU/mL)” value ([2]; 5 min) of the same compound?
Answer: 6.80E+06 CFU/mL

Question: And the “E. Coli Sample (CFU/mL)” value ([2]; 10 min)?
Answer: 1.36E+06 CFU/mL

Question: What about the “E. Coli Sample (CFU/mL)” value ([2]; "Time Zero") of the same compound?
Answer: 1.99E+07 CFU/mL

Question: And the “log reduction, gram negative pathogen (E. Coli)” value [2, 4]?
Answer: 1 log

Question: What about the “S. aureus Sample (CFU/mL)” value ([3]; 1 min) of the same compound?
Answer: 1.20E+07 CFU/mL

Question: And the “S. aureus Sample (CFU/mL)” value ([3]; 5 min)?
Answer: 8.80E+06 CFU/mL

Question: And the “S. aureus Sample (CFU/mL)” value ([3]; 10 min)?
Answer: 3.86E+06 CFU/mL

Question: And the “S. aureus Sample (CFU/mL)” value ([3]; "Time Zero")?
Answer: 1.04E+07 CFU/mL

Question: And the “log reduction, gram positive pathogen (S. aureus)” value [3, 4]?
Answer: 1 log

Question: With OO [H2O2, 15%, hydrogen peroxide] as the compound, how does the “Wave Height, I, mA” value [1] read?
Answer: 85 mA

Question: And the “E, mV vs. Ag/AgCl” value [1]?
Answer: 1,550 mV

Question: For OO [H2O2, 27%, hydrogen peroxide], which “Wave Height, I, mA” value [1] is on record?
Answer: 92 mA

Question: What about the “E, mV vs. Ag/AgCl” value [1] of the same compound?
Answer: 1,600 mV

Question: And the “Wave Height, I, mA” value ([1]; listed as pure H2O2)?
Answer: about 92 mA
